Four molecules from US20230017045A1, “PYRIDINE AND PYRIMIDINE CARBOXYLATE HERBICIDES AND METHODS OF USE THEREOF” (Dow AgroSciences LLC, priority 2017, published 2023) can be followed below.

For the test, the system named is test plant species. Briefly: Post-emergent herbicidal activity test (greenhouse, foliar spray, visual growth reduction). The test is classed as in vivo. The settings on record: post-emergence, 336 h, 140 g ai/ha, 14 days after application. The procedure, abridged: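 Plants grown in greenhouse (15 h photoperiod, 23-29° C day/22-28° C night) to first or second true leaf stage were sprayed overhead with compound in acetone/water/isopropanol/DMSO/crop oil/X-77 carrier at 187 L/ha. Injury was scored visually after 14 d on a 0-100% scale versus solvent-blank and untreated controls.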

Where [1] appears, read: ALOMY: blackgrass (Alopecurus myosuroides), read-out: Visual Growth Reduction (%) 14 Days After Application, ALOMY.
The mark [2] stands for this setting: AMARE: redroot pigweed (Amaranthus retroflexus), read-out: Visual Growth Reduction (%) 14 Days After Application, AMARE.
The mark [3] stands for this setting: AVEFA: wild oat (Avena fatua), read-out: Visual Growth Reduction (%) 14 Days After Application, AVEFA.
The mark [4] stands for this setting: CHEAL: lambsquarters (Chenopodium album), read-out: Visual Growth Reduction (%) 14 Days After Application, CHEAL.
The mark [5] stands for this setting: CIRAR: canada thistle (Cirsium arvense), read-out: Visual Growth Reduction (%) 14 Days After Application, CIRAR.
Setting [6] is: CYPES: yellow nutsedge (Cyperus esculentus), read-out: Visual Growth Reduction (%) 14 Days After Application, CYPES.
Where [7] appears, read: DIGSA: crabgrass (Digitaria sanguinalis), read-out: Visual Growth Reduction (%) 14 Days After Application, DIGSA.
Where [8] appears, read: ECHCG: barnyardgrass (Echinochloa crus-galli), read-out: Visual Growth Reduction (%) 14 Days After Application, ECHCG.
Where [9] appears, read: IPOHE: ivy-leaf morning glory (Ipomoea hederacea), read-out: Visual Growth Reduction (%) 14 Days After Application, IPOHE.
Setting [10] is: KCHSC: kochia (Bassia scoparia), read-out: Visual Growth Reduction (%) 14 Days After Application, KCHSC.
[11] abbreviates: ORYSA: rice (Oryza sativa), read-out: Visual Growth Reduction (%) 14 Days After Application, ORYSA.
Where [12] appears, read: SETFA: giant foxtail (Setaria faberi), read-out: Visual Growth Reduction (%) 14 Days After Application, SETFA.
Setting [13] is: SORVU: grain sorghum (Sorghum vulgare), read-out: Visual Growth Reduction (%) 14 Days After Application, SORVU.
The mark [14] stands for this setting: STEME: common chickweed (Stellaria media), read-out: Visual Growth Reduction (%) 14 Days After Application, STEME.
Where [15] appears, read: TRZAS: wheat, spring (Triticum aestivum), read-out: Visual Growth Reduction (%) 14 Days After Application, TRZAS.

Like-named read-outs stand apart in the source and are kept apart here.

Turning to `COC(=O)c1nc(-c2ccc(C(F)(F)F)cc2Cl)ncc1OC` [F104, Methyl 2-(2-chloro-4-(trifluoromethyl)phenyl)-5-methoxypyrimidine-4-carboxylate], the pest or weed control at 140 g/ha runs as follows: under setting [1], 0 to 29%; under setting [2], 0 to 29%; under setting [3], 0 to 29%; under setting [4], 0 to 29%; under setting [5], 0 to 29%; under setting [6], 0 to 29%. Further, the pest or weed control at 140 g/ha reads like this: under setting [7], 60 to 74%; under setting [8], 0 to 29%; under setting [9], 60 to 74%; under setting [10], 0 to 29%; under setting [11], 0 to 29%; under setting [12], 0 to 29%. Further, the pest or weed control at 140 g/ha runs as follows: under setting [13], 60 to 74%; under setting [14], 0 to 29%; under setting [15], 0 to 29%.

For the molecule `COC(=O)c1nc(-c2ccc(C(F)(F)F)cc2Cl)ncc1Cl` [F105, Methyl 5-chloro-2-(2-chloro-4-(trifluoromethyl)phenyl)pyrimidine-4-carboxylate], the pest or weed control at 140 g/ha runs as follows: under setting [1], 0 to 29%; under setting [2], 95 to 100%; under setting [3], 0 to 29%; under setting [4], 85 to 94%; under setting [5], 85 to 94%; under setting [6], 0 to 29%. The pest or weed control at 140 g/ha under setting [7] lay within 85 to 94%; the pest or weed control at 140 g/ha under setting [8] lay within 60 to 74%; the pest or weed control at 140 g/ha under setting [9] lay within 95 to 100%; the pest or weed control at 140 g/ha under setting [10] lay within 60 to 74%; the pest or weed control at 140 g/ha under setting [11] fell in the range of 0 to 29%; the pest or weed control at 140 g/ha under setting [12] lay within 60 to 74%. For the same molecule, the pest or weed control at 140 g/ha is 75 to 84% under setting [13], 0 to 29% under setting [14] and 0 to 29% under setting [15].

On to `COC(=O)c1nc(-c2ccc(C(F)(F)F)cc2)c(Cl)cc1Cl` [F106, Methyl 3,5-dichloro-6-(4-(trifluoromethyl)phenyl)picolinate], for which the pest or weed control at 140 g/ha is, setting by setting: under setting [1], 0 to 29%; under setting [2], 45 to 59%; under setting [3], 0 to 29%; under setting [4], 30 to 44%; under setting [5], 0 to 29%; under setting [6], 0 to 29%. In addition, the pest or weed control at 140 g/ha by setting is: under setting [7], 45 to 59%; under setting [8], 0 to 29%; under setting [9], 45 to 59%; under setting [10], 0 to 29%; under setting [11], 0 to 29%; under setting [12], 0 to 29%. Moreover, the pest or weed control at 140 g/ha under setting [13] was 30 to 44%, the pest or weed control at 140 g/ha under setting [14] lay in the range of 0 to 29% and the pest or weed control at 140 g/ha under setting [15] was in the range of 0 to 29%.

With `COC(=O)c1nc(-c2ccc(C(F)(F)F)cc2Cl)c(F)cc1Cl` [F107, methyl 3-chloro-6-(2-chloro-4-(trifluoromethyl)phenyl)-5-fluoropicolinate], the pest or weed control at 140 g/ha runs as follows: under setting [1], 30 to 44%; under setting [2], 95 to 100%; under setting [3], 45 to 59%; under setting [4], 95 to 100%; under setting [5], 95 to 100%; under setting [6], 0 to 29%. Moreover, the pest or weed control at 140 g/ha by setting is: under setting [7], 95 to 100%; under setting [8], 0 to 29%; under setting [9], 95 to 100%; under setting [10], 60 to 74%; under setting [11], 0 to 29%; under setting [12], 45 to 59%. Besides, the pest or weed control at 140 g/ha was 95 to 100% under setting [13], 0 to 29% under setting [14] and 45 to 59% under setting [15].
